≈ marks a conversion by molar mass, not a printed value.
Experiments:
Rattus norvegicus = species: Rattus norvegicus; experiment: Relative bioavailability of prodrugs in rat; type: ADME, organism-based; details: in vivo
[1] = (§1) Aqueous solubility; type: physicochemical; details: aqueous medium (not further specified); read-out: S
[2] = as §1; type: physicochemical; details: aqueous medium (not further specified); read-out: S; remark: listed apart in the source
Canis familiaris = species: Canis familiaris; experiment: Relative bioavailability of oxindole prodrugs in dog; type: ADME, organism-based, Canis lupus familiaris; details: in vivo
[3] = as §1; type: physicochemical; details: aqueous medium (not further specified); read-out: S; remark: listed apart in the source
[4] = Relative bioavailability of oxindole prodrugs in monkey; type: ADME, organism-based; details: simiiformes, in vivo
[5] = as §1; type: physicochemical; details: aqueous medium (not further specified); read-out: S; remark: listed apart in the source
[6] = Ionization constant for the compound was evaluated; type: physicochemical

SMILES	Relative F% (Rattus norvegicus)	solubility [1]	also measured
NC(=O)N1C(=O)/C(=C(/OCOC(=O)c2ccccc2)c2cccs2)c2cc(F)c(Cl)cc21	0		
CC(C)C(N)C(=O)OCO/C(=C1/C(=O)N(C(N)=O)c2cc(Cl)c(F)cc21)c1cccs1.Cc1ccc(S(=O)(=O)O)cc1 (stereo not drawn)	27		
CC(=O)OCC(=O)OCO/C(=C1/C(=O)N(C(N)=O)c2cc(Cl)c(F)cc21)c1cccs1	17	< 0.02 µg/mL	
CC(C)CC(N)C(=O)OCO/C(=C1/C(=O)N(C(N)=O)c2cc(Cl)c(F)cc21)c1cccs1.Cc1ccc(S(=O)(=O)O)cc1 (stereo not drawn)	81		
CC(O)C(=O)OCO/C(=C1/C(=O)N(C(N)=O)c2cc(Cl)c(F)cc21)c1cccs1 (stereo not drawn)	90		Relative bioavailability (Canis familiaris): 22; solubility [3]: 0.38 µg/mL (≈ 0.862 µM)
NC(=O)N1C(=O)/C(=C(\OC(=O)c2ccncc2)c2cccs2)c2cc(F)c(Cl)cc21	2.2	0.32 µg/mL (≈ 0.721 µM)	solubility [2]: < 0.07 µg/mL
CCOC(=O)CCC(=O)O/C(=C1\C(=O)N(C(N)=O)c2cc(Cl)c(F)cc21)c1cccs1	3.5		
CCC(=O)O/C(=C1\C(=O)N(C(N)=O)c2cc(Cl)c(F)cc21)c1cccs1	6.6	0.003 µg/mL (≈ 0.0076 µM)	
CC(C)(C)OC(=O)NCC(=O)OCO/C(=C1/C(=O)N(C(N)=O)c2cc(Cl)c(F)cc21)c1cccs1	0	0.06 µg/mL (≈ 0.114 µM)	
COCC(=O)OCO/C(=C1/C(=O)N(C(N)=O)c2cc(Cl)c(F)cc21)c1cccs1	62		
CC(NC(=O)OC(C)(C)C)C(=O)OCO/C(=C1/C(=O)N(C(N)=O)c2cc(Cl)c(F)cc21)c1cccs1 (stereo not drawn)	20		
CCN(CC)C(=O)COC(=O)CCC(=O)O/C(=C1/C(=O)N(C(N)=O)c2cc(Cl)c(F)cc21)c1cccs1	16		
NC(=O)N1C(=O)/C(=C(\OC(=O)c2ccccn2)c2cccs2)c2cc(F)c(Cl)cc21	1.6	< 0.06 µg/mL	solubility [2]: < 0.06 µg/mL
CC(=O)OCC(=O)O/C(=C1\C(=O)N(C(N)=O)c2cc(Cl)c(F)cc21)c1cccs1	6.6		
Cc1ccc(S(=O)(=O)O)cc1.NCC(=O)OCO/C(=C1/C(=O)N(C(N)=O)c2cc(Cl)c(F)cc21)c1cccs1	46		Relative bioavailability (Canis familiaris): 78
COC(=O)O/C(=C1\C(=O)N(C(N)=O)c2cc(Cl)c(F)cc21)c1cccs1	13		
CCN(CC)C(=O)OCC(=O)OCO/C(=C1/C(=O)N(C(N)=O)c2cc(Cl)c(F)cc21)c1cccs1	36		
CCOC(=O)/C=C/C(=O)O/C(=C1/C(=O)N(C(N)=O)c2cc(Cl)c(F)cc21)c1cccs1	21	< 0.02 µg/mL	Relative bioavailability (Canis familiaris): 6.4
CC(C)OC(=O)O/C(=C1/C(=O)N(C(N)=O)c2cc(Cl)c(F)cc21)c1cccs1 (stereo in doubt; 33)	9.9		
NC(=O)N1C(=O)C(=C(O)c2cccs2)c2cc(F)c(Cl)cc21 [ILONIDAP]	100	40 µg/mL (≈ 118 µM)	Relative bioavailability (Canis familiaris): 100; Relative bioavailability [4]: 100; pKa [6]: 3.5

More lines, main results first:

Relative F% (Rattus norvegicus)	solubility [1]	SMILES	also measured
12		CC(C)OC(=O)OC(C)O/C(=C1/C(=O)N(C(N)=O)c2cc(Cl)c(F)cc21)c1cccs1 (stereo not drawn)	
42		NC(=O)N1C(=O)/C(=C(/OCOC(=O)COCc2ccccc2)c2cccs2)c2cc(F)c(Cl)cc21	
3.5	0.023 µg/mL (≈ 0.056 µM)	CCOC(=O)O/C(=C1\C(=O)N(C(N)=O)c2cc(Cl)c(F)cc21)c1cccs1	
0		NC(=O)N1C(=O)/C(=C(\OC(=O)c2ccccc2)c2cccs2)c2cc(F)c(Cl)cc21	
2.3	0.04 µg/mL (≈ 0.0942 µM)	CC(=O)OC(C)O/C(=C1/C(=O)N(C(N)=O)c2cc(Cl)c(F)cc21)c1cccs1 (stereo not drawn)	
0	< 0.06 µg/mL	NC(=O)N1C(=O)/C(=C(\OC(=O)c2cccnc2)c2cccs2)c2cc(F)c(Cl)cc21	solubility [2]: < 0.06 µg/mL
25	17 µg/mL (≈ 46.6 µM)	O=C(c1cccs1)c1c2cc(F)c(Cl)cc2n2c(=O)[nH]c(=O)oc12	
93		CCC(OC)C(=O)OCO/C(=C1/C(=O)N(C(N)=O)c2cc(Cl)c(F)cc21)c1cccs1 (stereo not drawn)	
14	0.011 µg/mL (≈ 0.0289 µM)	CC(=O)O/C(=C1\C(=O)N(C(N)=O)c2cc(Cl)c(F)cc21)c1cccs1	
26	0.009 µg/mL (≈ 0.0198 µM)	CCOC(=O)OC(C)O/C(=C1/C(=O)N(C(N)=O)c2cc(Cl)c(F)cc21)c1cccs1 (stereo not drawn)	Relative bioavailability (Canis familiaris): 1.4
3.7		CC(C)(C)C(=O)O/C(=C1\C(=O)N(C(N)=O)c2cc(Cl)c(F)cc21)c1cccs1	
4		NC(=O)N1C(=O)/C(=C(/OC(=O)/C=C/c2ccccc2)c2cccs2)c2cc(F)c(Cl)cc21	
17	0.013 µg/mL (≈ 0.0307 µM)	CCCCC(=O)O/C(=C1\C(=O)N(C(N)=O)c2cc(Cl)c(F)cc21)c1cccs1	
5.7		CCCCCCCCOC(=O)O/C(=C1/C(=O)N(C(N)=O)c2cc(Cl)c(F)cc21)c1cccs1	
45		COC(C)C(=O)OCO/C(=C1/C(=O)N(C(N)=O)c2cc(Cl)c(F)cc21)c1cccs1 (stereo not drawn)	
80		C[C@@H](N)C(=O)OCO/C(=C1/C(=O)N(C(N)=O)c2cc(Cl)c(F)cc21)c1cccs1.Cc1ccc(S(=O)(=O)O)cc1	Relative bioavailability (Canis familiaris): 78; Relative bioavailability [4]: 78; solubility [3]: 150 µg/mL
8.9		COCC(=O)O/C(=C1\C(=O)N(C(N)=O)c2cc(Cl)c(F)cc21)c1cccs1	
58		CCCC(OCc1ccccc1)C(=O)OCO/C(=C1/C(=O)N(C(N)=O)c2cc(Cl)c(F)cc21)c1cccs1 (stereo not drawn)	Relative bioavailability (Canis familiaris): 7.5
4.2	0.58 µg/mL (≈ 1.19 µM)	NC(=O)N1C(=O)/C(=C(\OC(=O)c2cccc(C(=O)O)c2)c2cccs2)c2cc(F)c(Cl)cc21	
86		CCC(OCc1ccccc1)C(=O)OCO/C(=C1/C(=O)N(C(N)=O)c2cc(Cl)c(F)cc21)c1cccs1 (stereo not drawn)	Relative bioavailability (Canis familiaris): 12
0		CC(C)(C)C(=O)OCO/C(=C1/C(=O)N(C(N)=O)c2cc(Cl)c(F)cc21)c1cccs1	
95	0.08 µg/mL (≈ 0.183 µM)	NC(=O)N1C(=O)/C(=C(/OC(=O)/C=C/C(=O)O)c2cccs2)c2cc(F)c(Cl)cc21	Relative bioavailability (Canis familiaris): 91; Relative bioavailability [4]: 73; solubility [3]: 2.5 µg/mL (≈ 5.72 µM); solubility [5]: 24 µg/mL (≈ 54.9 µM)
47	0.34 µg/mL (≈ 0.747 µM)	COCC(=O)OC(C)O/C(=C1/C(=O)N(C(N)=O)c2cc(Cl)c(F)cc21)c1cccs1 (stereo not drawn)	Relative bioavailability (Canis familiaris): 5.2
49		Cl.Cl.NCCCCC(N)C(=O)OCO/C(=C1/C(=O)N(C(N)=O)c2cc(Cl)c(F)cc21)c1cccs1 (stereo not drawn)	
0.6		CC(C)OC(=O)O/C(=C1/C(=O)N(C(N)=O)c2cc(Cl)c(F)cc21)c1cccs1 (stereo in doubt; 32)	
